Assays:
[1] = Drug uptake in human A375PPuro cells at 1000 nM after 15 mins by flow cytometric analysis; assay type: ADME, cell-based; conditions: 0.25 h, 1 µM
Integrin alpha-V/beta-6 [2] = target: T1, Integrin alpha-V/beta-6 (Homo sapiens, UniProt P06756+P18564); assay: Binding affinity to alphav/beta6 integrin in human A375Pbeta6 cells at 100 nM after 15 mins by flow cytometric analysis relative to biotinylated A20FMDV2; assay type: cell-based
Integrin alpha-V/beta-6 [3] = target: T1, Integrin alpha-V/beta-6; assay: Binding affinity to alphav/beta6 integrin in human A375Pbeta6 cells assessed as drug internalization at 100 nM after 15 mins by flow cytometric analysis relative to biotinylated A20FMDV2; assay type: ADME, cell-based; conditions: 0.25 h, 0.1 µM
Target sequence in this assay (P06756 31-889 limits assumed): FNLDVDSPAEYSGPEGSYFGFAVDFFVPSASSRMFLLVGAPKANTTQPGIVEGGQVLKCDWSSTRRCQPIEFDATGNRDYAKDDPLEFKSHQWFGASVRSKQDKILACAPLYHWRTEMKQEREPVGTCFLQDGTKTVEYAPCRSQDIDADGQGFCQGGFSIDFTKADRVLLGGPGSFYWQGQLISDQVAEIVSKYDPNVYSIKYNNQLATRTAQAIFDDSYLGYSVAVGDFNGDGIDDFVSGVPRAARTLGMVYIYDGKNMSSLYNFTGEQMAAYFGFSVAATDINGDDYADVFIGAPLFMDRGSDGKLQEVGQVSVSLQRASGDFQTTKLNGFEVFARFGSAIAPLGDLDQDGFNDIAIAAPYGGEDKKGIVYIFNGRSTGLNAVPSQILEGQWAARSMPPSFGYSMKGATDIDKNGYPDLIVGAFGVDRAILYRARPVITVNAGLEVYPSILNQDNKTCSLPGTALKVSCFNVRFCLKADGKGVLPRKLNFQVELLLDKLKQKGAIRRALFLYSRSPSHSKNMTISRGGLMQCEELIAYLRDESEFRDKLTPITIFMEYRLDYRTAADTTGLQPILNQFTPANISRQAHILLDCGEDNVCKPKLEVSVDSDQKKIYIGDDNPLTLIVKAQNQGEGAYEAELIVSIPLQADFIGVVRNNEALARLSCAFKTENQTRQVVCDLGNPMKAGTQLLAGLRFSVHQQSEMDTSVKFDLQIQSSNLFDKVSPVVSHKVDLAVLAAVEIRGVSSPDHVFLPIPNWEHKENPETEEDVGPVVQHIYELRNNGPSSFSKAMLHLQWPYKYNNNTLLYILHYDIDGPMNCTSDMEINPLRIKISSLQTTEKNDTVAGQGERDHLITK
Target sequence in this assay (P06756 891-1048 limits assumed): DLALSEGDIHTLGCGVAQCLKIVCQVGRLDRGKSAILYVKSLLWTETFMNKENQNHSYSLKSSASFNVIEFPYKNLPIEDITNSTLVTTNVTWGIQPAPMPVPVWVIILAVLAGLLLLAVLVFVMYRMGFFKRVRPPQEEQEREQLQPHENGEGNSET
Target sequence in this assay (P18564 22-788 limits assumed): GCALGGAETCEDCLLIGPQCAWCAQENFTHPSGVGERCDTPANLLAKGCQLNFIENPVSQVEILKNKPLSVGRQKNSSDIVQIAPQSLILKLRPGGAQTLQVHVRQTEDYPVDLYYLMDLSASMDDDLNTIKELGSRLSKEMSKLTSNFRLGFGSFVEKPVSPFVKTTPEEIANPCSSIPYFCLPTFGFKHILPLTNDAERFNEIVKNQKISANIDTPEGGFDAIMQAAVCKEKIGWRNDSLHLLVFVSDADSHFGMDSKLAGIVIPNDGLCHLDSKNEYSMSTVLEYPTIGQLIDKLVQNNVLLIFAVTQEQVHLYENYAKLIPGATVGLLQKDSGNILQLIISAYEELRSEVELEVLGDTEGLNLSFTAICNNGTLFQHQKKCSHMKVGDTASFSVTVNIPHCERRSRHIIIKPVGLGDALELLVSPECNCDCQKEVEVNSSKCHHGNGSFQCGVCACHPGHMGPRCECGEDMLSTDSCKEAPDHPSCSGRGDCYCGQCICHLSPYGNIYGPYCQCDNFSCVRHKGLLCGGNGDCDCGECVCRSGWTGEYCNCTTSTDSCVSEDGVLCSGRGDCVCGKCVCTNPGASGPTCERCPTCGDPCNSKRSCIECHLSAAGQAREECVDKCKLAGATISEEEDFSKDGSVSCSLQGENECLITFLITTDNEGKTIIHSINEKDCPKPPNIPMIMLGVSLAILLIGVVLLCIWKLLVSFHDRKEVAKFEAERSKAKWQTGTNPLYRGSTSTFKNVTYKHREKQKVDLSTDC

Row | SMILES | Drug uptake [1] | fold change (FC) (Integrin alpha-V/beta-6 [2]) | fold change (FC) (Integrin alpha-V/beta-6 [3])
1 | C=CC[C@H](NC(=O)[C@@H](NC(=O)[C@H](CCC(N)=O)NC(=O)[C@H](CC(C)C)NC(=O)[C@H](CC(=O)O)NC(=O)CNC(=O)[C@H](CCCNC(=N)N)NC(=O)[C@H](CC(C)C)NC(=O)[C@H](CC(N)=O)NC(=O)[C@@H]1CCCN1C(=O)[C@@H](NC(=O)[C@H](CCCCNC(=O)CCCC[C@@H]1SC[C@@H]2NC(=O)N[C@@H]21)NC(=O)[C@@H](N)CC(N)=O)C(C)C)C(C)C)C(=O)N[C@@H](C)C(=O)N[C@@H](CCC(N)=O)C(=O)N[C@@H](CCCCN)C(=O)N[C@H](C(=O)N[C@@H](C)C(=O)N[C@@H](CCCNC(=N)N)C(=O)N[C@H](C(=O)O)[C@@H](C)O)C(C)C | Not Active | 0.58 | 0.82
2 | CC(C)C[C@H](NC(=O)[C@H](CC(=O)O)NC(=O)CNC(=O)[C@H](CCCNC(=N)N)NC(=O)[C@H](CC(C)C)NC(=O)[C@H](CC(N)=O)NC(=O)[C@@H]1CCCN1C(=O)[C@@H](NC(=O)[C@H](CCCCNC(=O)CCCC[C@@H]1SC[C@@H]2NC(=O)N[C@@H]21)NC(=O)[C@@H](N)CC(N)=O)C(C)C)C(=O)N[C@@H](CCC(N)=O)C(=O)N[C@H](C(=O)N[C@H](C(=O)N[C@@H](C)C(=O)N[C@@H](CCC(N)=O)C(=O)N[C@@H](CCCCN)C(=O)N[C@H](C(=O)N[C@@H](C)C(=O)N[C@@H](CCCNC(=N)N)C(=O)N[C@H](C(=O)O)[C@@H](C)O)C(C)C)C12CC3CC(CC(C3)C1)C2)C(C)C | Not Active | 0.51 | 1.07
3 | CC(C)C[C@H](NC(=O)[C@H](CC(=O)O)NC(=O)CNC(=O)[C@H](CCCNC(=N)N)NC(=O)[C@H](CC(C)C)NC(=O)[C@H](CC(N)=O)NC(=O)[C@@H]1CCCN1C(=O)[C@@H](NC(=O)[C@H](CCCCNC(=O)CCCC[C@@H]1SC[C@@H]2NC(=O)N[C@@H]21)NC(=O)[C@@H](N)CC(N)=O)C(C)C)C(=O)N[C@@H](CCC(N)=O)C(=O)N[C@H](C(=O)N[C@@H](CC(C)C)C(=O)N[C@@H](C)C(=O)N[C@@H](CCC(N)=O)C(=O)N[C@@H](CCCN)C(=O)N[C@H](C(=O)N[C@@H](C)C(=O)N[C@@H](CCCNC(=N)N)C(=O)N[C@H](C(=O)O)[C@@H](C)O)C(C)C)C(C)C | Not Active | 1.12 | 0.86
4 | CC(C)C[C@H](NC(=O)[C@H](CC(=O)O)NC(=O)CNC(=O)[C@H](CCCNC(=N)N)NC(=O)[C@H](CC(C)C)NC(=O)[C@H](CC(N)=O)NC(=O)[C@@H]1CCCN1C(=O)[C@@H](NC(=O)[C@H](CCCCNC(=O)CCCC[C@@H]1SC[C@@H]2NC(=O)N[C@@H]21)NC(=O)[C@@H](N)CC(N)=O)C(C)C)C(=O)N[C@@H](CCC(N)=O)C(=O)N[C@H](C(=O)N[C@@H](CC1CCCCC1)C(=O)N[C@@H](C)C(=O)N[C@@H](CCC(N)=O)C(=O)N[C@@H](CCCCN)C(=O)N[C@H](C(=O)N[C@@H](C)C(=O)N[C@@H](CCCNC(=N)N)C(=O)N[C@H](C(=O)O)[C@@H](C)O)C(C)C)C(C)C | Not Active | 0.62 | 1.01
5 | CCCC[C@H](NC(=O)[C@@H](NC(=O)[C@H](CCC(N)=O)NC(=O)[C@H](CC(C)C)NC(=O)[C@H](CC(=O)O)NC(=O)CNC(=O)[C@H](CCCNC(=N)N)NC(=O)[C@H](CC(C)C)NC(=O)[C@H](CC(N)=O)NC(=O)[C@@H]1CCCN1C(=O)[C@@H](NC(=O)[C@H](CCCCNC(=O)CCCC[C@@H]1SC[C@@H]2NC(=O)N[C@@H]21)NC(=O)[C@@H](N)CC(N)=O)C(C)C)C(C)C)C(=O)N[C@@H](C)C(=O)N[C@@H](CCC(N)=O)C(=O)N[C@@H](CCCCN)C(=O)N[C@H](C(=O)N[C@@H](C)C(=O)N[C@@H](CCCNC(=N)N)C(=O)N[C@H](C(=O)O)[C@@H](C)O)C(C)C | Not Active | 1.16 | 1.15
6 | CC(C)C[C@H](NC(=O)[C@H](CC(=O)O)NC(=O)CNC(=O)[C@H](CCCNC(=N)N)NC(=O)[C@H](CC(C)C)NC(=O)[C@H](CC(N)=O)NC(=O)[C@@H]1CCCN1C(=O)[C@@H](NC(=O)[C@H](CCCCNC(=O)CCCC[C@@H]1SC[C@@H]2NC(=O)N[C@@H]21)NC(=O)[C@@H](N)CC(N)=O)C(C)C)C(=O)N[C@@H](CCC(N)=O)C(=O)N[C@H](C(=O)N[C@@H](CC(C)(C)C)C(=O)N[C@@H](C)C(=O)N[C@@H](CCC(N)=O)C(=O)N[C@@H](CCCCN)C(=O)N[C@H](C(=O)N[C@@H](C)C(=O)N[C@@H](CCCNC(=N)N)C(=O)N[C@H](C(=O)O)[C@@H](C)O)C(C)C)C(C)C | Not Active | 0.6 | 1.03
7 | CC(C)C[C@H](NC(=O)[C@H](CC(=O)O)NC(=O)CNC(=O)[C@H](CCCNC(=N)N)NC(=O)[C@H](CC(C)C)NC(=O)[C@H](CC(N)=O)NC(=O)[C@@H]1CCCN1C(=O)[C@@H](NC(=O)[C@H](CCCCNC(=O)CCCC[C@@H]1SC[C@@H]2NC(=O)N[C@@H]21)NC(=O)[C@@H](N)CC(N)=O)C(C)C)C(=O)N[C@@H](CCC(N)=O)C(=O)N[C@H](C(=O)N[C@@H](CC(C)C)C(=O)N[C@@H](C)C(=O)N[C@@H](CCC(N)=O)C(=O)N(C)[C@@H](CCCCN)C(=O)N[C@H](C(=O)N[C@@H](C)C(=O)N[C@@H](CCCNC(=N)N)C(=O)N[C@H](C(=O)O)[C@@H](C)O)C(C)C)C(C)C | Not Active | 0.37 | 0.89
8 | CC(C)C[C@H](NC(=O)[C@H](CC(=O)O)NC(=O)CNC(=O)[C@H](CCCNC(=N)N)NC(=O)[C@H](CC(C)C)NC(=O)[C@H](CC(N)=O)NC(=O)[C@@H]1CCCN1C(=O)[C@@H](NC(=O)[C@H](CCCCNC(=O)CCCC[C@@H]1SC[C@@H]2NC(=O)N[C@@H]21)NC(=O)[C@@H](N)CC(N)=O)C(C)C)C(=O)N[C@@H](CCC(N)=O)C(=O)N[C@H](C(=O)N[C@@H](CC(C)C)C(=O)N[C@@H](C)C(=O)N[C@@H](CCC(N)=O)C(=O)N[C@H](CCCCN)C(=O)N[C@H](C(=O)N[C@@H](C)C(=O)N[C@@H](CCCNC(=N)N)C(=O)N[C@H](C(=O)O)[C@@H](C)O)C(C)C)C(C)C | Not Active | 1.11 | 0.78
9 | CC(C)C[C@H](NC(=O)[C@H](CC(=O)O)NC(=O)CNC(=O)[C@H](CCCNC(=N)N)NC(=O)[C@H](CC(C)C)NC(=O)[C@H](CC(N)=O)NC(=O)[C@@H]1CCCN1C(=O)[C@@H](NC(=O)[C@H](CCCCNC(=O)CCCC[C@@H]1SC[C@@H]2NC(=O)N[C@@H]21)NC(=O)[C@@H](N)CC(N)=O)C(C)C)C(=O)N[C@@H](CCC(N)=O)C(=O)N[C@H](C(=O)NC(C)(C)C(=O)N[C@@H](C)C(=O)N[C@@H](CCC(N)=O)C(=O)N[C@@H](CCCCN)C(=O)N[C@H](C(=O)N[C@@H](C)C(=O)N[C@@H](CCCNC(=N)N)C(=O)N[C@H](C(=O)O)[C@@H](C)O)C(C)C)C(C)C | Not Active | 1.07 | 1.11
10 | CC(C)C[C@H](NC(=O)[C@H](CC(=O)O)NC(=O)CNC(=O)[C@H](CCCNC(=N)N)NC(=O)[C@H](CC(C)C)NC(=O)[C@H](CC(N)=O)NC(=O)[C@@H]1CCCN1C(=O)[C@@H](NC(=O)[C@H](CCCCNC(=O)CCCC[C@@H]1SC[C@@H]2NC(=O)N[C@@H]21)NC(=O)[C@@H](N)CC(N)=O)C(C)C)C(=O)N[C@@H](CCC(N)=O)C(=O)N[C@H](C(=O)N[C@@H](CC(C)C)C(=O)N[C@@H](C)C(=O)N[C@@H](CCC(N)=O)C(=O)N[C@@H](CN)C(=O)N[C@H](C(=O)N[C@@H](C)C(=O)N[C@@H](CCCNC(=N)N)C(=O)N[C@H](C(=O)O)[C@@H](C)O)C(C)C)C(C)C | Not Active | 0.79 | 0.96
11 | CCC[C@H](NC(=O)[C@@H](NC(=O)[C@H](CCC(N)=O)NC(=O)[C@H](CC(C)C)NC(=O)[C@H](CC(=O)O)NC(=O)CNC(=O)[C@H](CCCNC(=N)N)NC(=O)[C@H](CC(C)C)NC(=O)[C@H](CC(N)=O)NC(=O)[C@@H]1CCCN1C(=O)[C@@H](NC(=O)[C@H](CCCCNC(=O)CCCC[C@@H]1SC[C@@H]2NC(=O)N[C@@H]21)NC(=O)[C@@H](N)CC(N)=O)C(C)C)C(C)C)C(=O)N[C@@H](C)C(=O)N[C@@H](CCC(N)=O)C(=O)N[C@@H](CCCCN)C(=O)N[C@H](C(=O)N[C@@H](C)C(=O)N[C@@H](CCCNC(=N)N)C(=O)N[C@H](C(=O)O)[C@@H](C)O)C(C)C | Not Active | 0.77 | 1.09
12 | CC(=O)N[C@@H](CC(N)=O)C(=O)N[C@@H](CCCCNC(=O)CCCC[C@@H]1SC[C@@H]2NC(=O)N[C@@H]21)C(=O)N[C@H](C(=O)N1CCC[C@H]1C(=O)N[C@@H](CC(N)=O)C(=O)N[C@@H](CC(C)C)C(=O)N[C@@H](CCCNC(=N)N)C(=O)NCC(=O)N[C@@H](CC(=O)O)C(=O)N[C@@H](CC(C)C)C(=O)N[C@@H](CCC(N)=O)C(=O)N[C@H](C(=O)N[C@@H](CC(C)C)C(=O)N[C@@H](C)C(=O)N[C@@H](CCC(N)=O)C(=O)N[C@@H](CCCCN)C(=O)N[C@H](C(=O)N[C@@H](C)C(=O)N[C@@H](CCCNC(=N)N)C(=O)N[C@H](C(N)=O)[C@@H](C)O)C(C)C)C(C)C)C(C)C | Not Active | 1.25 | 0.87
13 | CC(C)C[C@H](NC(=O)[C@H](CC(=O)O)NC(=O)CNC(=O)[C@H](CCCNC(=N)N)NC(=O)[C@H](CC(C)C)NC(=O)[C@H](CC(N)=O)NC(=O)[C@@H]1CCCN1C(=O)[C@@H](NC(=O)[C@H](CCCCNC(=O)CCCC[C@@H]1SC[C@@H]2NC(=O)N[C@@H]21)NC(=O)[C@@H](N)CC(N)=O)C(C)C)C(=O)N[C@@H](CCC(N)=O)C(=O)N[C@H](C(=O)N[C@@H](CC(C)C)C(=O)N[C@@H](C)C(=O)N[C@@H](CCC(N)=O)C(=O)N[C@@H](CCN)C(=O)N[C@H](C(=O)N[C@@H](C)C(=O)N[C@@H](CCCNC(=N)N)C(=O)N[C@H](C(=O)O)[C@@H](C)O)C(C)C)C(C)C | Not Active | 1 | 0.86

Source: ChEMBL document CHEMBL4138084, “Structure-activity relationship study of the tumour-targeting peptide A20FMDV2 via modification of Lys16, Leu13, and N- and/or C-terminal functionality” (Eur J Med Chem, 2017)
